Assay results: PubChem BioAssay (NCI)
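The concentration for 50% growth inhibition is given as GI50. TGI denotes the concentration required for complete inhibition of growth.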

Legend:
Test in all cases: inhibition of tumour cell growth, NCI panel, 384-well format
NCI-H522 lung = test system: NCI-H522 lung
UACC-257 melanoma = test system: UACC-257 melanoma
SNB-19 CNS = test system: SNB-19 CNS
SF-295 CNS = test system: SF-295 CNS
T-47D breast = test system: T-47D breast
EKVX NSCLC = test system: EKVX NSCLC
CCRF-CEM leukemia = test system: CCRF-CEM leukemia
UO-31 renal = test system: UO-31 renal
KM12 colon = test system: KM12 colon
SW-620 colon = test system: SW-620 colon
TK-10 renal = test system: TK-10 renal
NCI-H226 lung = test system: NCI-H226 lung
LOX IMVI melanoma = test system: LOX IMVI melanoma
A498 renal = test system: A498 renal
U251 glioblastoma = test system: U251 glioblastoma
HS 578T breast = test system: HS 578T breast
COLO 205 colon = test system: COLO 205 colon
MDA-MB-468 breast = test system: MDA-MB-468 breast
DU-145 prostate = test system: DU-145 prostate
OVCAR-3 ovarian = test system: OVCAR-3 ovarian
OVCAR-8 ovarian = test system: OVCAR-8 ovarian
HCC-2998 colon = test system: HCC-2998 colon
SK-MEL-5 melanoma = test system: SK-MEL-5 melanoma
A549 NSCLC = test system: A549 NSCLC
HCT-15 colon = test system: HCT-15 colon
MDA-MB-435 melanoma = test system: MDA-MB-435 melanoma
HCT-116 colon = test system: HCT-116 colon
UACC-62 melanoma = test system: UACC-62 melanoma
PC-3 prostate = test system: PC-3 prostate

In the case of `CCN(Cc1cc(Nc2nc(C)cn3c(-c4cn[nH]c4)cnc23)sn1)C(C)(C)CO`, the GI50 (NCI-H522 lung) is reported as < 10 nM, the TGI (NCI-H522 lung) is reported as 64.6 nM and the GI50 (UACC-257 melanoma) is reported as 1070 nM. The TGI (UACC-257 melanoma) was 2310 nM, the GI50 (SNB-19 CNS) was 53.4 nM and the TGI (SNB-19 CNS) was 1070 nM. The GI50 (SF-295 CNS) was 102 nM, the TGI (SF-295 CNS) was 319 nM and the GI50 (T-47D breast) was 1050 nM. The TGI (T-47D breast) was 11400 nM, the GI50 (EKVX NSCLC) was 32.1 nM and the TGI (EKVX NSCLC) was 1500 nM. For the same compound, the GI50 (CCRF-CEM leukemia) was < 10 nM, the TGI (CCRF-CEM leukemia) was < 10 nM and the GI50 (UO-31 renal) was 64.1 nM. The TGI (UO-31 renal) was 1700 nM, the GI50 (KM12 colon) was 15.4 nM and the TGI (KM12 colon) was 1040 nM. For the same compound, the GI50 (SW-620 colon) was 16.3 nM, the TGI (SW-620 colon) was 1360 nM and the GI50 (TK-10 renal) was 72.5 nM. The TGI (TK-10 renal) was 378 nM, the GI50 (NCI-H226 lung) was < 10 nM and the TGI (NCI-H226 lung) was 152 nM. The GI50 (LOX IMVI melanoma) was 27.6 nM, the TGI (LOX IMVI melanoma) was 134 nM and the GI50 (A498 renal) was 13.2 nM. The TGI (A498 renal) was 299 nM, the GI50 (U251 glioblastoma) was 42.5 nM and the TGI (U251 glioblastoma) was 1180 nM. The GI50 (HS 578T breast) was 15.6 nM, the TGI (HS 578T breast) was 39 nM and the GI50 (COLO 205 colon) was < 10 nM. The TGI (COLO 205 colon) was 100 nM, the GI50 (MDA-MB-468 breast) was < 10 nM and the TGI (MDA-MB-468 breast) was < 10 nM. The GI50 (DU-145 prostate) was 21.3 nM, the TGI (DU-145 prostate) was 1270 nM and the GI50 (OVCAR-3 ovarian) was 16.3 nM. It also gave a TGI (OVCAR-3 ovarian) of 204 nM, a GI50 (OVCAR-8 ovarian) of 21.3 nM and a TGI (OVCAR-8 ovarian) of 188 nM. The GI50 (HCC-2998 colon) was 99.9 nM, the TGI (HCC-2998 colon) was 362 nM and the GI50 (SK-MEL-5 melanoma) was 118 nM. The TGI (SK-MEL-5 melanoma) was 537 nM, the GI50 (A549 NSCLC) was 42.3 nM and the TGI (A549 NSCLC) was 1450 nM. The GI50 (HCT-15 colon) was 23.2 nM, the TGI (HCT-15 colon) was 1560 nM and the GI50 (MDA-MB-435 melanoma) was 71.2 nM. The TGI (MDA-MB-435 melanoma) was 242 nM, the GI50 (HCT-116 colon) was < 10 nM and the TGI (HCT-116 colon) was 1400 nM. For the same compound, the GI50 (UACC-62 melanoma) was 18.7 nM, the TGI (UACC-62 melanoma) was 1270 nM and the GI50 (PC-3 prostate) was 21 nM. The TGI (PC-3 prostate) was 2000 nM.
